Several values for one entry are separate records, joined by “and”; a condition that tells them apart may be missing. Equal entries are not always repeated.
Columns and labels:
[1] = system: recombinant human CYP (rCYP) enzymes; assay: Incubations of [14C]pomalidomide with 10 recombinant human CYP enzymes, radiochromatography / LC–MS/MS; format: in vitro ADME
Description: The CYP enzymes responsible for the formation of the hydroxy pomalidomide metabolites were investigated using 10 recombinant human CYP (rCYP) enzymes (CYP1A2, CYP2A6, CYP2B6, CYP2C8, CYP2C9, CYP2C19, CYP2D6, CYP2E1, CYP3A4 and CYP3A5) at 100 pmol/mL. Incubations were prepared using [^14C]pomalidomide (1 μM) in 0.1 M potassium phosphate buffer (pH 7.4) with 4 mM MgCl2, pre-incubated for 5 min at 37 °C. Reactions were initiated by the addition of 1 mM NADPH and continued for 30 or 60 min. Reactions were quenched with two volumes of ice-cold 0.1 % formic acid in acetonitrile containing [^13C5]pomalidomide as internal standard. The samples were mixed and centrifuged, and a subsample of the supernatant evaporated to dryness. The resulting pellet was reconstituted in 0.1 % formic acid in water and acetonitrile (4:1, v/v) and analyzed using HPLC with radiochromatography and/or LC–MS/MS. The rate of formation of the notable human metabolite M17 was calculated and scaled to human in vivo situation using relative abundance method.

[2] = Plasma pharmacokinetics of pomalidomide and circulating metabolites by radiochromatography (metabolite profiling); format: in vivo, human; design: AUC0–24 / AUC0−∞: concentration or dose not given beside the values; conditions: for Plasma (% AUC relative to TRA): AUC0–24 (unchanged drug or metabolite)/AUC0–24 (TRA) * 100 %; for Tmax / half-life: human, oral, 2 mg; for Tmax / half-life / AUC0–24 / AUC0−∞ / C max: plasma, radiochromatography; for Tmax: median and range; for half-life: male, read-out: t ½ (converted); for half-life / AUC0–24 / AUC0−∞ / C max: geometric mean (%CV); for AUC/AUCTRA: plasma exposure relative to total radioactivity
Description: Individual plasma samples collected from all subjects at 1, 2.5, 4, 6, 10, 12 and 24 h post-dose were analyzed for metabolite profiling. Samples were extracted with acetonitrile, the supernatant was removed, and the pellet was washed with 0.1 % formic acid in water and extracted again with acetonitrile. The combined supernatants were adjusted to 15 or 25 mL by adding acetonitrile then evaporated to dryness under a stream of nitrogen. The residues were re-suspended in 0.1 % formic acid in water, assayed for extraction recovery and analyzed for metabolite profiling. A control plasma sample spiked with [^14C]pomalidomide was extracted in a similar manner to determine the extraction efficiency and stability of [^14C]pomalidomide.
(§1) HPLC analysis for metabolite profiling (HPLC Method 1) was performed using a Waters 2695 Alliance Separation Module (Waters Corp., Milford, MA) with the autosampler set to 4 °C. [^14C]Pomalidomide and metabolites were separated using an ACE C18 column (150 × 4.6 mm, 3 μm; Advanced Chromatography Technologies, Aberdeen, Scotland) equipped with an ACE C18 guard column (10 × 3 mm, 3 μm). The mobile phases used were 25 mM ammonium acetate in water: pH 5.5 with formic acid (mobile phase A) and methanol (mobile phase B). The column temperature was 30 °C, and the flow rate was 0.7 mL/min. The linear gradient was delivered as follows: 0–2 min 100 % A; 2–38 min to 64 % A; 38–44 min to 0 % A; 44–48 min hold at 0 % A; return to initial conditions over 2 min.
(§2) Radioactivity profiles for plasma and excreta were determined by collecting the column eluate into 96-well Deepwell LumaPlates™ at a rate of 0.25 min/fraction. The plates were dried and the radioactivity in each well determined using a PerkinElmer TopCount® NXT™ Microplate Scintillation Counter. HPLC radiochromatograms were reconstructed using LC-ARC data handling software.
For pomalidomide and metabolite concentrations in plasma based on metabolite profiling data, pharmacokinetic data were generated by non-compartmental analysis of plasma versus time profiles using WinNonlin (version 4.1, Enterprise Edition).

[3] = Metabolite profiling of urine and feces (% of dose excreted); format: in vivo, human; conditions: radiochromatography; for % of dose excreted, Urine: pooled urine 0–72 h
Description: For each subject, urine samples were pooled using an equal percentage by volume of the 0–6, 6–12, 12–24, 24–48 and 48–72 h samples. Pools of the 0–6, 6–12, 12–24, 24–48 and 48-72 h collections were also prepared across subjects and analyzed for metabolite profiling. Samples were mixed and centrifuged prior to the supernatants being transferred to fresh tubes for metabolite profiling analysis.
For each subject, fecal homogenates for metabolite profiling were pooled using an equal percentage by weight of the 0–24, 24–48, 48–72 and 72–96 h samples. Pools of the 0–24, 24-48, 48–72 and 72–96 h collections were also prepared across subjects and analyzed for metabolite profiling. An aliquot of each pool was extracted with acetonitrile; samples were mixed and centrifuged. The supernatant was removed and the pellets re-suspended with 0.1 % formic acid and extracted with acetonitrile. The combined supernatants were evaporated to dryness under a stream of nitrogen and the residue re-suspended in methanol:0.1 % formic acid in water (1:1). Samples were assayed for extraction recovery prior to metabolite profiling. A control fecal homogenate spiked with [^14C]pomalidomide was extracted in a similar manner to determine the extraction efficiency and stability of [^14C]pomalidomide.
as §1, §2

PBMC TNF-α production = assay: Inhibition of TNF-α production by LPS-stimulated human PBMC (1-day culture); format: cell-based; conditions: 24 h
Description: (§3) Metabolites and hydrolysis products of pomalidomide were tested for pharmacological activity in the following three assay systems: (1) inhibition of MM cell proliferation, (2) enhancement of primary human T cell IL-2 production and (3) inhibition of TNF-α production by lipopolysaccharide (LPS)-stimulated human peripheral blood mononuclear cells (PBMC). For all three assay types, compounds were dissolved in 100 % dimethyl sulfoxide (DMSO) and diluted into complete cell culture medium, consisting of Roswell Park Memorial Institute (RPMI)-1640 plus penicillin, streptomycin and L-glutamine (Mediatech, Manassas, VA). The MM cell proliferation cell culture medium contained 10 % fetal bovine serum, while the primary human cell cultures contained 10 % human AB serum (Invitrogen, Brown Deer, WI). The final DMSO concentration in the cell culture media was 0.25 %.
(§4) The human MM cell line OPM-2 was obtained from DSMZ (Braunschweig, Germany), and human MM cell lines U266 B1 and NCI-H929 were obtained from ATCC (Manassas, VA). Inhibition of MM cell proliferation was assessed by the [^3H]-thymidine incorporation assay in a 3-day culture in the presence of compounds in complete medium, as previously described. Primary human T cells were isolated from PBMC by negative selection using the RosetteSep T Cell Enrichment Cocktail (STEMCELL Technologies, Tukwila, WA) according to the manufacturer’s procedures. Costimulation of T cell IL-2 production was measured in a 2-day culture of primary human T cells isolated from healthy donors stimulated with anti-CD3 antibody in the presence of compounds, as previously described. Inhibition of TNF-α production by LPS-stimulated human PBMC was measured in a 1-day culture in the presence of compound, as previously described.

U266 MM cell = assay: Inhibition of MM cell proliferation ([3H]-thymidine incorporation, 3-day culture); format: cell-based; conditions: Homo sapiens, U-266
Description: as §3, §4

OPM-2 MM cell = assay: as above; format: cell-based; conditions: Homo sapiens
Description: as §3, §4

H929 MM cell = assay: as above; format: cell-based; conditions: Homo sapiens, NCI-H929
Description: as §3, §4

T cell IL-2 production = assay: Enhancement of primary human T cell IL-2 production (anti-CD3 stimulated, 2-day culture); format: cell-based; conditions: 48 h, anti-CD3 stimulated primary human T cells
Description: as §3, §4

| Compound | level of metabolite detected by radiochromatography in rCYP incubations ([1]; all rCYP incubations of [14C]pomalidomide 1 μM) | level of metabolite detected by radiochromatography in the absence of enzyme ([1]; incubations of [14C]pomalidomide without enzyme) | Plasma (% AUC relative to TRA) [2] | Tmax [2] | half-life [2] | AUC/AUCTRA [2] | AUC0–24 [2] | AUC0−∞ [2] | C max [2] | % of dose excreted, Feces ([3]; pooled feces 0–96 h) | % of dose excreted, Urine [3] | IC50 (PBMC TNF-α production) | IC50 (U266 MM cell) | IC50 (OPM-2 MM cell) | IC50 (H929 MM cell) | EC50 (T cell IL-2 production) | formation of metabolite in rCYP incubations (LC–MS/MS) ([1]; any of the samples analyzed) |
| --- | --- | --- | --- | --- | --- | --- | --- | --- | --- | --- | --- | --- | --- | --- | --- | --- | --- |
| NC(=O)CCC(C(=O)O)N1C(=O)c2cccc(N)c2C1=O (stereo not drawn) [Metabolite M11] | 2.5–5.9% | 5.5% | 6.3% | 2.5 h | 10 h | 6.34% | 12.3 (43.6) ngEq*h/mL | 15.9 (59.7) ngEq*h/mL | 0.965 (33.3) ngEq/mL | 0.3% | 23% and 23.3% | > 10 µM | > 1 µM | > 1 µM | > 1 µM | > 10 µM |  |
| Nc1ccc(O)c2c1C(=O)N(C1CCC(=O)NC1=O)C2=O (stereo not drawn) [Metabolite M16, 7-hydroxy pomalidomide] |  |  | 6.1% | 1 h | 14.2 h | 6.13% | 11.9 (16.8) ngEq*h/mL | 17.6 (29.9) ngEq*h/mL | 0.907 (27.4) ngEq/mL |  | 7.0% | > 10 µM | > 1 µM | > 1 µM | > 1 µM | > 10 µM | not observed |

Source: publication PMC3556473, “Absorption, metabolism and excretion of [^14C]pomalidomide in humans following oral administration” (Cancer Chemotherapy and Pharmacology, 2012)
